# Laboratory results: ChEMBL document CHEMBL1154768 (J Med Chem, 2009)
# pEC50, pIC50, pKi: −log10 of the molar value.
# Legend:
# Adenosine receptor A1 [1] = molecular target: T1, Adenosine receptor A1 (Homo sapiens, UniProt P30542); test: Displacement of [3H]CCPA from human recombinant adenosine A1 receptor expressed in CHO cells after 60 mins by liquid scintillation counting; assay type: cell-based
# T1 sequence (P30542 whole entry): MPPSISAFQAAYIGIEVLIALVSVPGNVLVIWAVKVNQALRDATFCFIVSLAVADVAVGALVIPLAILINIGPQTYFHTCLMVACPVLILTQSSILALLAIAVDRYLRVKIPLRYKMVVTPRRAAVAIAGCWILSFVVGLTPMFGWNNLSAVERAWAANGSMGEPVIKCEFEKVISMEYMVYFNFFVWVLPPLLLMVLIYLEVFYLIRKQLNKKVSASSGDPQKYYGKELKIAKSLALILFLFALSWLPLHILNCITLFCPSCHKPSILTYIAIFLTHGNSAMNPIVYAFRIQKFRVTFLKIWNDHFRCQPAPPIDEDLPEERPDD
# Adenosine receptor A2a [2] = molecular target: T2, Adenosine receptor A2a (Homo sapiens, UniProt P29274); test: Inhibition of [3H]CGS21680 binding to human adenosine A2A receptor expressed in HEK293 cells at 10 uM after 60 mins by liquid scintillation counting; assay type: cell-based
# T2 sequence (P29274 whole entry): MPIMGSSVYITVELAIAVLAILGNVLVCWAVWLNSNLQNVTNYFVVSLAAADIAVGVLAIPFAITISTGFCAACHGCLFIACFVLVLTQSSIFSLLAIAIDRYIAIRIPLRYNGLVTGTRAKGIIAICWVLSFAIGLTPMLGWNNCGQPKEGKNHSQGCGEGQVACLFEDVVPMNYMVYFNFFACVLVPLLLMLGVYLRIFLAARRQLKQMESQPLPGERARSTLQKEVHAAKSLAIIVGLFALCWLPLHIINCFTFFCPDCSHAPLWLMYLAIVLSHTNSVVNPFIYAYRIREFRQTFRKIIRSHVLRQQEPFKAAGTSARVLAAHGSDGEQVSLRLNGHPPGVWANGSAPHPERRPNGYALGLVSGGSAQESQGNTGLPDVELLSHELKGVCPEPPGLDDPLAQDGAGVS
# [3] = molecular target: T3, Adenosine receptor A3 (Homo sapiens) (UniProt P0DMS8); test: Agonist activity at human recombinant adenosine A3 receptor expressed in CHO cells assessed as inhibition of forskolin-stimulated cAMP production at 10 uM treated 45 mins before forskolin challenge measured after 15 mins by radioimmunoassay relative to NECA; assay type: functional, cell-based
# T3 sequence (whole entry): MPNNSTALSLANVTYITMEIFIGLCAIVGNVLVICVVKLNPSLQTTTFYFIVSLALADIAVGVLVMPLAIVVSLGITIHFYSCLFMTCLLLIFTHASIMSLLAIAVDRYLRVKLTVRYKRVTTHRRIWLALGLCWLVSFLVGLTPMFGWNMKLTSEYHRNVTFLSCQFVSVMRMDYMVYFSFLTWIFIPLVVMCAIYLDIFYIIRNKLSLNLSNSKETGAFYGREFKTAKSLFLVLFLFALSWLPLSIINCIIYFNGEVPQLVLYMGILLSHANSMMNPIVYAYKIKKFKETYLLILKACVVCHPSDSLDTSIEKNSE
# [4] = molecular target: T4, Adenosine receptor A1 (Homo sapiens) (UniProt P30542); test: Inhibition of [3H]NECA binding to human recombinant adenosine A1 receptor expressed in CHO cells at 10 uM after 60 mins by liquid scintillation counting; assay type: cell-based
# T4 sequence (whole entry): T1 sequence (P30542 whole entry)
# Adenosine receptor A3 [5] = molecular target: T5, Adenosine receptor A3 (Homo sapiens, UniProt P0DMS8); test: Displacement of [125I]AB-MECA from human recombinant adenosine A3 receptor expressed in CHO cells after 60 mins by gamma counting
# T5 sequence (P0DMS8 whole entry): T3 sequence (whole entry)
# Adenosine receptor A2a [6] = molecular target: T2, Adenosine receptor A2a; test: Displacement of [3H]CGS21680 from human adenosine A2A receptor expressed in HEK293 cells after 60 mins by liquid scintillation counting; assay type: cell-based
# Adenosine receptor A3 [7] = molecular target: T6, Adenosine receptor A3 (Rattus norvegicus, UniProt P28647); test: Binding affinity to rat adenosine A3 receptor expressed in CHO cells; assay type: cell-based
# T6 sequence (P28647 whole entry): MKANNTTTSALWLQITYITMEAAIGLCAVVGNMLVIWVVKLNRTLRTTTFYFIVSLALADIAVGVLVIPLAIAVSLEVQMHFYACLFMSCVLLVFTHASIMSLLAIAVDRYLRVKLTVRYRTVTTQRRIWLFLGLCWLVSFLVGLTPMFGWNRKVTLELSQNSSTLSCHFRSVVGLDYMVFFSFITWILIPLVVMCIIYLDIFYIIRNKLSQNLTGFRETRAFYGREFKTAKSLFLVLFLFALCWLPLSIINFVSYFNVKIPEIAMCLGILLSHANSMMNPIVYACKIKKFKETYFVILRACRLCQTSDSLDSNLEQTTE
# Adenosine receptor A1 [8] = molecular target: T1, Adenosine receptor A1; test: Displacement of [3H]NECA from human recombinant adenosine A1 receptor expressed in CHO cells after 60 mins by liquid scintillation counting; assay type: cell-based
# Homo sapiens = organism: Homo sapiens; test: Selectivity for human recombinant adenosine A3 receptor over human recombinant adenosine A2A receptor
# [9] = molecular target: Adenosine receptors; A1 & A3 (Homo sapiens) (UniProt P30542+P0DMS8); test: Selectivity for human recombinant adenosine A3 receptor over human recombinant adenosine A1 receptor
# Adenosine receptor A3 [10] = molecular target: T5, Adenosine receptor A3; test: Agonist activity at human recombinant adenosine A3 receptor expressed in CHO cells assessed as inhibition of forskolin-stimulated cAMP production treated 45 mins before forskolin challenge measured after 15 mins by radioimmunoassay relative to NECA; assay type: functional, cell-based
# [11] = molecular target: T4, Adenosine receptor A1 (Homo sapiens); test: Inhibition of [3H]CCPA binding to human recombinant adenosine A1 receptor expressed in CHO cells at 10 uM after 60 mins by liquid scintillation counting; assay type: cell-based
# [12] = molecular target: T3, Adenosine receptor A3 (Homo sapiens); details: CHO, 10 uM
# Description: Inhibition of [125I]AB-MECA binding to human recombinant adenosine A3 receptor expressed in CHO cells at 10 uM after 60 mins by liquid scintillation counting
SMILES,inhibition (Adenosine receptor A2a [2]),Efficacy [3],inhibition [4],pKi (Adenosine receptor A3 [5]),pKi (Adenosine receptor A2a [6]),other results
CNC(=O)[C@]12C[C@@H]1[C@@H](n1cnc3c(NCc4cccc(Cl)c4)nc(C#CCCCC(=O)OC)nc31)[C@H](O)[C@@H]2O,49%,–,–,–,–,pKi (Adenosine receptor A1 [1]): 6.32
CNC(=O)[C@]12C[C@@H]1[C@@H](n1cnc3c(NCc4cccc(Cl)c4)nc(C#CCCCCC(=O)OC)nc31)[C@H](O)[C@@H]2O,–,85%,20%,7.95,5.45,–
O[C@@H]1[C@H](O)[C@@H]2C[C@@H]2[C@H]1n1cnc2c(NCc3cccc(Cl)c3)ncnc21,–,58.3%,–,8.31,5.34,pKi (Adenosine receptor A3 [7]): 7.69; pKi (Adenosine receptor A1 [8]): 5.80
CNC(=O)[C@]12C[C@@H]1[C@@H](n1cnc3c(NCc4cccc(Cl)c4)nc(C#CCCCCC(=O)O)nc31)[C@H](O)[C@@H]2O,38%,74.4%,11%,7.91,–,–
O[C@@H]1[C@H](O)[C@@H]2C[C@@H]2[C@H]1n1cnc2c(NCc3cccc(I)c3)ncnc21,–,80.8%,–,–,–,pKi (Adenosine receptor A1 [8]): 6.08
CNC(=O)[C@]12C[C@@H]1[C@@H](n1cnc3c(NCc4cccc(I)c4)ncnc31)[C@H](O)[C@@H]2O,–,100%,–,8.62,5.21,pKi (Adenosine receptor A1 [1]): 6.15
CNC(=O)[C@]12C[C@@H]1[C@@H](n1cnc3c(NCc4cccc(Cl)c4)nc(Cl)nc31)[C@H](O)[C@@H]2O,–,–,–,–,5.64,pKi (Adenosine receptor A1 [1]): 6.59
CNC(=O)[C@]12C[C@@H]1[C@@H](n1cnc3c(NCc4cccc(Cl)c4)nc(C#CCCC(=O)NCCCCN)nc31)[C@H](O)[C@@H]2O,–,102%,30%,8.68,6.12,fold change (FC) (Homo sapiens): > 5000; pKi (Adenosine receptor A3 [7]): 8.06; fold change (FC) [9]: 360
CNC(=O)[C@]12C[C@@H]1[C@@H](n1cnc3c(NCc4cccc(Cl)c4)nc(C#CCCC(=O)NCCNC(=O)CCCC[C@H]4SC[C@H]5NC(=O)N[C@H]54)nc31)[C@H](O)[C@@H]2O,51%,84.5%,1%,7.44,–,pIC50 (Adenosine receptor A3 [10]): 8.60
CNC(=O)[C@]12C[C@@H]1[C@@H](n1cnc3c(NCc4cccc(Cl)c4)nc(C#CCCC(=O)NCCN)nc31)[C@H](O)[C@@H]2O,–,96.9%,–,8.60,6.26,pKi (Adenosine receptor A1 [8]): 5.63
O[C@@H]1[C@H](O)[C@@H]2C[C@@H]2[C@H]1n1cnc2c(NCc3cccc(I)c3)nc(F)nc21,–,19%,–,7.97,5.40,pKi (Adenosine receptor A1 [8]): 6.29
NCCNC(=O)CCC#Cc1nc(NCc2cccc(Cl)c2)c2ncn([C@H]3[C@H](O)[C@H](O)[C@@H]4C[C@@H]43)c2n1,35%,0.9%,15%,6.39,–,fold change (FC) (Homo sapiens): > 20; fold change (FC) [9]: > 20
O[C@@H]1[C@H](O)[C@@H]2C[C@@H]2[C@H]1n1cnc2c(NC3CCCC3)nc(Cl)nc21,–,95.1%,–,6.92,5.79,pKi (Adenosine receptor A1 [8]): 6.96
CNC(=O)[C@]12C[C@H]1[C@@H](n1cnc3c(NCc4cccc(Cl)c4)nc(C#CCCCC(=O)O)nc31)[C@@H](O)[C@H]2O,9%,–,–,–,–,–
CNC(=O)[C@]12C[C@@H]1[C@@H](n1cnc3c(NCc4cccc(Cl)c4)nc(C#CCCCCC(=O)NCCN)nc31)[C@H](O)[C@@H]2O,–,100%,47%,8.47,6.56,–
CNC(=O)[C@]12C[C@@H]1[C@@H](n1cnc3c(NCc4cccc(Cl)c4)nc(C#CCCC(=O)NCCNCCN)nc31)[C@H](O)[C@@H]2O,–,87.6%,33%,7.81,6.05,–
CNC(=O)[C@]12C[C@@H]1[C@@H](n1cnc3c(NCc4cccc(Cl)c4)nc(C#CCCC(=O)OC)nc31)[C@H](O)[C@@H]2O,43%,90%,41%,8.26,–,–
"CNC(=O)C12C[C@@H]1[C@@H](n1cnc3c(NCc4cccc(Cl)c4)nc(C#CCCCC(=O)O)nc31)[C@H](O)[C@@H]2O (single isomer, unassigned)",–,–,–,–,–,pKi (Adenosine receptor A3 [7]): 7.18
CNC(=O)[C@]12C[C@@H]1[C@@H](n1cnc3c(NCc4cccc(Cl)c4)nc(C#CCCC(=O)NCCNC(=O)CCCCCNC(=O)CCCC[C@H]4SC[C@H]5NC(=O)N[C@H]54)nc31)[C@H](O)[C@@H]2O,47%,107%,12%,7.24,–,fold change (FC) (Homo sapiens): 66; fold change (FC) [9]: > 170
O[C@@H]1[C@H](O)[C@@H]2C[C@@H]2[C@H]1n1cnc2c(NCc3cccc(I)c3)nc(Cl)nc21,–,44%,–,–,–,pEC50 (Adenosine receptor A3 [10]): 7.92
CNC(=O)[C@]12C[C@@H]1[C@@H](n1cnc3c(NCc4cccc(Cl)c4)nc(C#CCCC(=O)O)nc31)[C@H](O)[C@@H]2O,24%,106%,17%,7.21,–,–
CNC(=O)[C@]12C[C@H]1[C@@H](n1cnc3c(NCc4cccc(Cl)c4)nc(C#CCCCCC(=O)NCCN)nc31)[C@@H](O)[C@H]2O,5%,52%,–,5.33,–,inhibition [11]: 36%
CNC(=O)[C@]12C[C@H]1[C@@H](n1cnc3c(NCc4cccc(Cl)c4)nc(C#CCCC(=O)NCCN)nc31)[C@@H](O)[C@H]2O,8%,25.6%,–,–,–,inhibition [12]: 30%; inhibition [11]: 33%
CNC(=O)[C@]12C[C@@H]1[C@@H](n1cnc3c(NC4CCCC4)nc(Cl)nc31)[C@H](O)[C@@H]2O,–,101%,–,–,–,–
CNC(=O)[C@]12C[C@@H]1[C@@H](n1cnc3c(NCc4cccc(Cl)c4)nc(C#CCCCC(=O)NCCN)nc31)[C@H](O)[C@@H]2O,81%,–,–,8.66,–,pKi (Adenosine receptor A1 [1]): 6.34
CNC(=O)[C@]12C[C@@H]1[C@@H](n1cnc3c(NCc4cccc(Cl)c4)nc(C#CCCC(=O)NCCCN)nc31)[C@H](O)[C@@H]2O,–,97.9%,31%,8.51,6.01,–
